# Source: patent US9725430B2, “Use of small molecule inhibitors targeting EYA tyrosine phosphatase” (Children's Hospital Medical Center, priority 2013, dated 2017)
# Columns and labels:
# PTP1B = PTP1B (Homo sapiens (Human), UniProt P18031); assay: PTP1B-catalyzed pNPP hydrolysis; type: biochemical; conditions: pNPP substrate
# Procedure: The catalytic domain of human Eya2 (“hEYA2(ED)”) was similarly sub-cloned as a polyhistidine fusion construct in the vector pDEST-527. Fusion protein was purified by NiNTA chromatography and followed by size-exclusion chromatography over a Superdex-75 column. The relative purity of protein samples was determined using SDS-PAGE. PTP1B was purified as described previously (Rayapureddi, J. P. et al. Nature 426, 295-298 (2003), incorporated by reference in its entirety).
# An inhibitory assay was conducted using the previously described p-nitrophenylphosphate assay (Rayapureddi, J. P. et al. Nature 426, 295-298 (2003)). Briefly, ED was incubated in a reaction mixture containing 20 mM MES pH 6, 2 mM MgCl2, 125 μM inhibitor, 3.4 mM para-nitrophenol phosphate (pNPP) and 0.01 μg/μL enzyme.
# PTP1B is a classical Cys-based tyrosine phosphatase.
# HUVECs [1] = assay: HUVEC tubulogenesis on Matrigel; type: cell-based, human; conditions: for tube formation on Matrigel: HUVEC
# From the text: Primary endothelial cells (ECs) on basement membrane rapidly attach, align themselves and form capillary-like tubules with lumens and tight cell-cell contacts. […] To better understand the stage in matrigel tube-formation affected by compound 1g cells plated on growth-factor reduced matrigel and treated with either vehicle or compound 1g were followed. Differences become apparent within the first two hours and were clearly visible at the 6-hour time-point. The ECs are much less organized in the presence of compound 1g. […] The effect of compound 1g on tube formation was attenuated in the presence of high concentrations of fetal bovine serum (FBS), likely reflecting non-specific protein binding.
# The EYA inhibitors were also tested in tubulogenesis assays. The tubulogenesis assays were performed in 15-well micro-slide (ibidi LLC, Verona Wis.), using growth factor-reduced matrigel (BD Bioscience, Billerica, Mass.). The matrix was prepared by loading 10 μl of matrigel in each micro-slide well and allowing it to solidify for 30 minutes at 37° C. HUVECs were trypsinized and resuspended at 100.000 cell/ml in EBM+2.5% FBS. 50 μl (5,000 cell) were loaded on top of the solidified matrigel and the preparation was incubated for 20 hours at 37° C. in a humidified incubator in a 5% CO2 atmosphere. Bright field images were taken using an inverted microscope at 2.5× magnification, which allowed imaging of the whole well in two pictures that were later merged in Photoshop. Tubular structures were traced and counted using NeuroJ (NIH, USA). In experiments with inhibitor, the inhibitor was added to the cell suspension before loading. Each sample was loaded in triplicate, and each treatment was repeated for reproducibility.
# retinal vasculature = assay: Mouse model of oxygen-induced retinopathy; type: in vivo, mice; conditions: 100 or 50 pmoles injected at P12, analyzed at P16
# From the text: The mouse model of oxygen-induced retinopathy mimics the retinopathy characteristic of proliferative retiopathy conditions such as retinopathy of prematurity and diabetic retinopathy. […] The resulting retinal hypoxia after day 12, when pups were brought back to 20% O2, induced excessive hypoxia-driven angiogenesis. A characteristic large avascular area at the center of the retina and excessive regrowth of superficial vessels (pre-retinal neovascular tufts) in the mid-peripheral region was observed. […] In contrast, inhibition of either Vegf or Vegfr2 in OIR experiments suppresses both neovascular tuft formation and revascularization.
# HUVECs [2] = assay: HUVEC proliferation (MTT); type: cell-based, human; conditions: 5 μM, 24 hours
# mouse aortic rings = assay: Aortic ring sprouting assay; type: cell-based
# Procedure: Additionally, the effect of compounds 1d, 1f, 1h, 1i, 1g, 2 and 2a on cell proliferation, migration, tube formation, micro-vessel branching, and perivascular recruitment using an aortic ring sprouting assay. When slices of mouse aorta are cultured in collagen gels there is typically a lag phase for the first 4 days followed by linear sprouting of endothelial cells. By day 6, branching is observed. All the test compounds were initially assayed at 7.5 μM and the number of branch-points counted. When there was a severe effect (no visible sprouting), or when there was no apparent effect, other doses were tested to establish a dose-dependence. All of the compounds assayed were able to attenuate aortic ring sprouting. There was a strong reduction in initial sprouting and some attenuation of branching. With the exception of 2a, in all cases where there was sprouting, the length of sprouts was shorter than in the controls.
# Endothelial cell migration can also be studied […] using the aortic ring assay in which sprouting angiogenesis is monitored by the formation of vascular sprouts outside the wall of mouse aortic rings incubated in collagen matrix and stimulated by VEGF (Gerhardt, H., et al. EXS, 3-15 (2005), hereby incorporated by reference in its entirety). Briefly, mice were obtained from the Cincinnati Children's veterinary service and handled according to the institutional animal care and use protocol. […] Mice were 4 to 6 weeks old female C57BL16, and aortic ring explants were cultured at 37° C. in a humidified incubator under a 5% CO2 atmosphere.
# Each inhibitor was serially diluted (between 0.25 mM and 7.5 mM) to stocks of 1000× the working concentrations in sterile 100% DMSO in order to achieve an equal final concentration of DMSO (0.1% v/v) in all culture conditions. For the experiments, the compounds were diluted in EBM containing 2.5% FBS, penicillin/streptomycin and 20 ng/ml VEGF165 (R&D Systems, Minneapolis, Minn.). Each compound was applied from the first day of culture over a 10-day period with medium change every two days. In all experiments, the vehicle (DMSO, 0.1%) was used as control. The sprouting density was derived from counting the number of branches per ring, and the extent of angiogenic sprouting was estimated by measuring the total surface area covered by the vessels as illustrated in FIG. 7.
# HUVECs [3] = assay: HUVEC transwell migration; type: cell-based, human; conditions: 5 μM
# From the text: (§1) In order to determine whether EYA3 knock down would affect cell migration, a modified Boyden chamber assay was used to measure HUVEC migration. Briefly, human umbilical vein endothelial cells (HUVECs) were purchased from Lonza (Walkersville, Md.) and maintained in the endothelial cell growth medium (PromoCell, Hleidelberg, Germany), under a 5% CO2 atmosphere. MCF10A cells from ATCC were stably transfected with either pcDNA 3.2N5-DEST (vector control), V5-EYA2 or V5-EYA2(D250N). Transwell migration experiments were performed as previously described (Pandey, R. N. et al. Oncogene 29, 3715-3722, (2010)).
# MCF10A(EYA2) cells = assay: Transwell migration of MCF10A-EYA2 cells; type: cell-based; conditions: 7.5 μM
# From the text: The tyrosine phosphatase activity of Eya3 and Eya2 promotes single cell motility in breast cancer cells (Pandey, R. N. et al. Oncogene (2010) 29:3715-3722, incorporated by reference in its entirety). EYA2 is over-expressed in breast cancers and is associated with increased metastasis and a poorer outcome (Farabaugh, et al. Oncogene (2011) 259). […] Overexpression of EYA2, but not the tyrosine-phosphatase dead mutant, promoted cell motility (FIG. 2a). […] This effect was dose-dependent (FIG. 2d) and compound (1a) was able to reduce cell motility by over 50% at the lowest concentration (1 μM) tested.
# as §1
# [4] = system: developing zebrafish vasculature; assay: Zebrafish model of angiogenesis; type: in vivo; conditions: exposure from 5.25 hpf, analysis at 24 hpf; compound 1 at 0.25 μM
# Procedure: Embryos (FLK1-GFP trangenic) were maintained in fish water until the 50% epiboly stage (5.25 hpf) and were transferred into wells of 24-well plate containing the inhibitors in fish water. The analysis for vascular defects was performed after the 24 hpf stage, and embryos were imaged using a fluorescence microscope.
# Transgenic fish expressing EGFP in endothelial cells (Tg(flk1:EGFP)) were used to facilitate visualization of the developing vasculature. In control experiments embryos were treated with 0.1% DMSO (vehicle). At the time of analyses (24 hpf) developing vessels normally migrated from the lateral plate mesoderm to the midline and formed the vascular cord, subsequently forming the dorsal aorta and the posterior cardinal vein and followed by the formation of intersegmental vessels at designated branch points (FIG. 6b).
# EYA3 = EYA3 (Homo sapiens (Human), UniProt Q99504); assay: pNPP assay, full-length human recombinant EYA3; type: biochemical; conditions: pNPP substrate, full-length EYA3
# From the text: The catalytic domain of mouse Eya3 (“ED”, comprising residues 223-510 of Eya3) was purified as described by Rayapureddi, J. P. et al. (FEBS Lett 580, 3853-3859 (2006), incorporated by reference in its entirety). For full-length Eya3 (“hEYA3”), human Eya3 isoform 2 (representing the major species identified in human cell lines by mass spectrometry, expressed as residues 127-573 of NM_001990, isoform 1) was sub-cloned into pDEST565 to express a poly-histidine-Glutathione-S-transferase (His-GST) tagged fusion protein with a TVMV protease site. The protein was purified by glutathione-S-transferase affinity chromatography followed by TVMV cleavage, Ni-NTA chromatography, and finally size exclusion chromatography. […]
# The compounds were then tested using full-length human recombinant, purified EYA3 and pNPP as a substrate. Compounds were dissolved in DMSO and diluted as needed. […] Reactions were incubated at 30° C. for 30 minutes and quenched with 100 mM EDTA pH 10. IC50 values were then calculated directly from regression curves using PRISM software. All reported values are the mean of two independent experiments.
# HUVEC cells = assay: Scratch wound healing assay, HUVEC; type: cell-based, human; conditions: counted 22 hours later
# Procedure: Cells were plated and grown to confluency. Scratch wounds were made using a sterile pipette tip, the medium changed to remove any cellular debris, and fresh medium with either vehicle or test compound was introduced. The number of cells that migrated into the cleared space was counted 22 hours later.
# HUVECs [5] = assay: HUVEC cell viability assay (WST-8); type: cell-based, human; conditions: 3 days of exposure
# Procedure: Additionally, a cell viability assay was conducted over 3 days of exposure to test compounds 1, 1a and 1g in order to assess both the possibility of immediate cellular toxicity as well as any effect on cell proliferation. HUVECs were seeded and equilibrated for 24 hours before addition of the test compounds. Cellular metabolic activity was measured at defined time-points using the tetrazolium dye WST-8 to quantify NAD(P)H-dependent cellular oxidoreductase enzyme activity.
# EYA3, sequence (Q99504 127-573): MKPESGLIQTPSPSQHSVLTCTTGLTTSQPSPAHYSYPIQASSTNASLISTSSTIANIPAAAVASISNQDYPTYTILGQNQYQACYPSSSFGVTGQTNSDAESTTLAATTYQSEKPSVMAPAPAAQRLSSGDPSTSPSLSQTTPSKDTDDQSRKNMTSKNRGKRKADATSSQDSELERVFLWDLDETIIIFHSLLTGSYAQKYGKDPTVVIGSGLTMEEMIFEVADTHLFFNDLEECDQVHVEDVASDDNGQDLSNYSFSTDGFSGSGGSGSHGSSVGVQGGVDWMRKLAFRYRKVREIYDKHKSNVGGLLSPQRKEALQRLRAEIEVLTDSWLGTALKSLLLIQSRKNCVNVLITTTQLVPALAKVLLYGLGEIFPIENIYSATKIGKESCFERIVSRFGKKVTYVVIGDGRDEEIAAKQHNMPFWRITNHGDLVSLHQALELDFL
# PTP1B, sequence (P18031 whole entry, species assumed, the tested form may be a part): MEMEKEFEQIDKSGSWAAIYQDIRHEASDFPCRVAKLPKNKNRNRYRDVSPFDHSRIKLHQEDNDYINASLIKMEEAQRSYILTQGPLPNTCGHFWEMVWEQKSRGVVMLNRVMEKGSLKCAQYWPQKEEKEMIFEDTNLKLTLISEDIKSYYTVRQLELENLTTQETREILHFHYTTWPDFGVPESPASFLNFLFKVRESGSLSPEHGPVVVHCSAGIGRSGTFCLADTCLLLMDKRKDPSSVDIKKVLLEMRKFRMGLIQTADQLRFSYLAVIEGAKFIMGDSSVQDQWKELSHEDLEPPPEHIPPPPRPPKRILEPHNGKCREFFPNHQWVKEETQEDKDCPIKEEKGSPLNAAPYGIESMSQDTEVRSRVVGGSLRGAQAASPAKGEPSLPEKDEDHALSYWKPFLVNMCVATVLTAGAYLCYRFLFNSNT
IC50 (EYA3),Compound,tube formation on Matrigel (HUVECs [1]),also measured
–,CCCCc1oc2ccccc2c1C(=O)c1ccc(O)cc1 [Compound 1b],–,"IC50 (PTP1B): 71.4 µM; tubulogenesis inhibition (HUVECs [1]; 7.5 μM): effective at the highest concentrations tested; formation of neovascular tufts (retinal vasculature): Significant reduction in the formation of neovascular tufts; HUVEC cell proliferation (HUVECs [2]): no effect on cell proliferation; sprout length and microvascular density of aortic rings (mouse aortic rings; 5 μM, 10 days): shorter sprouts and significantly lower microvascular density; HUVEC cell motility (HUVECs [3]): attenuated HUVEC cell motility; cell migration (MCF10A(EYA2) cells): significantly inhibited cell migration; intersegmental vessels in zebrafish embryos [4]: reduced the number of intersegmental vessels, but were less potent"
3.4 µM,CCc1oc2ccccc2c1C(=O)c1cc(I)c(O)c(I)c1 [Compound 1c],–,–
8.3 µM,Cc1oc2ccccc2c1C(=O)c1cc(I)c(O)c(I)c1 [Compound 1d],did not show significant attenuation of tube formation,–
13.8 µM,CC(O)Cc1oc2ccccc2c1C(=O)c1cc(I)c(O)c(I)c1 (centres unmarked) [Compound 1e],–,–
17.5 µM,Cc1oc2ccccc2c1C(=O)c1ccc(O)c(I)c1 [Compound 1f],did not show significant attenuation of tube formation,–
27.2 µM,CCc1oc2cc(O)ccc2c1C(=O)c1cc(Br)c(O)c(Br)c1 [Compound 1g],much stronger inhibitory effect than compound 1a,aortic ring sprouting (mouse aortic rings; initially assayed at 7.5 μM): most potent inhibitor; reduction of cell migration (HUVEC cells): ~80%; reduction in cell proliferation (HUVECs [5]): over 50%
40.8 µM,CCc1oc2ccc(O)cc2c1C(=O)c1cc(Br)c(O)c(Br)c1 [Compound 1h],did not show significant attenuation of tube formation,–
41.9 µM,CC(O)c1oc2ccccc2c1C(=O)c1cc(Br)c(O)c(Br)c1 (centres unmarked) [Compound 1i],–,–
73.1 µM,CCc1oc2ccc(O)cc2c1C(=O)c1ccc(O)cc1 [Compound 1j],–,–
81.1 µM,Cc1oc2ccccc2c1C(=O)c1ccc(O)cc1 [Compound 1k],–,–
–,CCCCc1oc2ccccc2c1C(=O)c1cc(I)c(O)c(I)c1 [Compound 2],did not show significant attenuation of tube formation,–
–,CC(O)CCc1oc2ccccc2c1C(=O)c1cc(I)c(O)c(I)c1 (centres unmarked) [Compound 2a],did not show significant attenuation of tube formation,–
